Like-named read-outs stand apart in the source and are kept apart here.

The term IC50 denotes the concentration needed to halve the response being measured.

Test [1] relates to H929 multiple myeloma tumour line. In words: In vitro cytotoxicity, Microculture Tetrazolium Assay on H929 cells. In kind it is cell-based. Particulars: cell viability, read-out: IC50 (M) MTT H929. The method, then:
The cytotoxicity studies were carried out on the H929 multiple myeloma tumour line.
The cells are distributed onto microplates and exposed to the test compounds for 48 hours. The cell viability is then quantified by a colorimetric assay, the Microculture Tetrazolium Assay (Cancer Res., 1987, 47, 939-942).

Another test addresses Mcl-1 protein (Homo sapiens, UniProt Q07820). In words: Inhibition of Mcl-1 by the fluorescence polarisation technique. In kind it is binding. Particulars: for IC50: read-out: IC50 (M) Mcl-1 FP. In outline:
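Competitive FP with fluorescein-labelled peptide ligand, 5% DMSO, ~2 h at room temperature, 11-point curves, 4-parameter IC50. Method 1: 1 nM ligand, 5 nM Mcl-1 in HEPES pH 7.4 buffer; Method 2: 10 nM ligand, 10 nM Mcl-1 in phosphate pH 7.4 buffer, 50 μM unlabelled ligand as full-inhibition control.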

The test system of another test is cleaved form of PARP. Nature of the test: Quantification of the cleaved form of PARP in vivo. The arrangement: species or system mice (SCID strain). Particulars: AMO-1 xenograft in SCID mice; cleaved PARP in tumour lysates, treated / control; intraveinous or oral routes. Here is the method: The ability of the compounds of the invention to induce apoptosis, by measuring cleaved PARP levels, is evaluated in a xenograft model of AMO-1 multiple myeloma cells.
1.10^7 AMO-1 cells are grafted sub-cutaneously into immunosuppressed mice (SCID strain). 12 to 14 days after the graft, the animals are treated by intraveinous or oral routes with the various compounds. After treatment, the tumour masses are recovered and lysed, and the cleaved form of PARP is quantified in the tumour lysates.
The quantification is carried out using the “Meso Scale Discovery (MSD) ELISA platform” test, which specifically assays the cleaved form of PARP. It is expressed in the form of an activation factor corresponding to the ratio between the quantity of cleaved PARP in the treated mice divided by the quantity of cleaved PARP in the control mice.

The mark [2] stands for this setting: Homo sapiens, NCI-H929, exposed for 48 hours.
[3] abbreviates: Method 1 (not underlined) or Method 2 (underlined), underlining not visible, first value where cell prints two.

Mcl-1 protein, sequence (Q07820 whole entry): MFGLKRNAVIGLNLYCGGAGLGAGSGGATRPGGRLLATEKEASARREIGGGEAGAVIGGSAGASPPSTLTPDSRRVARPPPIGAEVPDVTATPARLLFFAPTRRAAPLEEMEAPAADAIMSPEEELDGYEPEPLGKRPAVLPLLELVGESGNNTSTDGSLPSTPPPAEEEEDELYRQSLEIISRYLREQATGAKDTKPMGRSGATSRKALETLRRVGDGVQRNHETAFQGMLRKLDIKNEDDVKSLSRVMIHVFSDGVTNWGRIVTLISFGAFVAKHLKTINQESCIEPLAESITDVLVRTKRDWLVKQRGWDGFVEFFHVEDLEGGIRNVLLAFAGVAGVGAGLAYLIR

`COc1ccccc1-c1nccc(COc2ccccc2CC(Oc2cccc3sc(-c4ccc(F)cc4)c(-c4ccc(OCCN5CCN(C)CC5)c(Cl)c4C)c23)C(=O)O)n1` (single isomer, unassigned) [Example 53]: the values for the 50% inhibitory concentration (IC50) (in test [1] (setting [2]); on Mcl-1 protein (setting [3])) were 2.53e-08 M and 2.2e-08 M, respectively. In the test on cleaved form of PARP, this compound yielded a PARP fold of 40.2 fold.

In the case of `COc1ccccc1-c1nccc(COc2ccccc2C[C@@H](Oc2ncnc3oc(-c4ccc(F)cc4)c(-c4ccc(OCCN5CCN(C)CC5)c(Cl)c4C)c23)C(=O)O)n1` [Example 1, (2R)-2-{[5-{3-chloro-2-methyl-4-[2-(4-methylpiperazin-1-yl)ethoxy]phenyl}-6-(4-fluorophenyl)furo[2,3-d]pyrimidin-4-yl]oxy}-3-(2-{[2-(2-methoxyphenyl)pyrimidin-4-yl]methoxy}phenyl)propanoic acid], the IC50 amounted to 2.41e-08 M in test [1] (setting [2]) and 3.8e-09 M at Mcl-1 protein (setting [3]). In the test with cleaved form of PARP, the PARP fold stood at 157.5 fold.

For the compound `CCc1c(-c2c(-c3ccc(F)cc3)oc3ncnc(O[C@H](Cc4ccccc4OCc4ccnc(-c5ccccc5OC)n4)C(=O)O)c23)ccc(OCCN2CCN(C)CC2)c1Cl` [Example 2, (2R)-2-{[5-{3-chloro-2-ethyl-4-[2-(4-methylpiperazin-1-yl)ethoxy]phenyl}-6-(4-fluorophenyl)furo[2,3-d]pyrimidin-4-yl]oxy}-3-(2-{[2-(2-methoxyphenyl)pyrimidin-4-yl]methoxy}phenyl)propanoic acid], the IC50 in test [1] (setting [2]) was 1.45e-08 M; on Mcl-1 protein (setting [3]), 6e-09 M. Further, the PARP fold in the test with cleaved form of PARP came to 216.3 fold.

Regarding `COc1ccccc1-c1nccc(COc2ccccc2CC(Nc2ncnc3oc(-c4ccc(F)cc4)c(-c4ccc(OCCN5CCN(C)CC5)c(Cl)c4C)c23)C(=O)O)n1` [Example 8, N-[(5Sa)-5-{3-chloro-2-methyl-4-[2-(4-methylpiperazin-1-yl)ethoxy]phenyl}-6-(4-fluorophenyl)furo[2,3-d]pyrimidin-4-yl]-2-{[2-(2-methoxyphenyl)pyrimidin-4-yl]methoxy}-D-phenylalanine], the half-maximal inhibitory concentration (IC50) is 1.78e-08 M in test [1] (setting [2]) and 6.6e-09 M on Mcl-1 protein (setting [3]). Moreover, in the test on cleaved form of PARP, the PARP fold is given as 55.4 fold.

`COc1ccccc1-c1nccc(COc2ccccc2CC(Oc2cc(F)cc3oc(-c4ccc(F)cc4)c(-c4ccc(OCCN5CCN(C)CC5)c(Cl)c4C)c23)C(=O)O)n1` [Example 67, (2R)-2-{[(3Sa)-3-{3-chloro-2-methyl-4-[2-(4-methylpiperazin-1-yl)ethoxy]phenyl}-6-fluoro-2-(4-fluorophenyl)-1-benzofuran-4-yl]oxy}-3-(2-{[2-(2-methoxyphenyl)pyrimidin-4-yl]methoxy}phenyl)propanoic acid]: the concentration for half-maximal inhibition (IC50) in test [1] (setting [2]) was determined as 8.36e-08 M; at Mcl-1 protein (setting [3]), 1.4e-08 M. In the test with cleaved form of PARP, this compound gave a PARP fold of 29.3 fold.

As for `COc1ccccc1-c1nccc(COc2ccccc2CC(Oc2ccnc3sc(-c4ccc(F)cc4)c(-c4ccc(OCCN5CCN(C)CC5)c(Cl)c4C)c23)C(=O)O)n1` [Example 71, (2R)-2-{[(3Sa)-3-{3-chloro-2-methyl-4-[2-(4-methylpiperazin-1-yl)ethoxy]phenyl}-2-(4-fluorophenyl)thieno[2,3-b]pyridin-4-yl]oxy}-3-(2-{[2-(2-methoxyphenyl)pyrimidin-4-yl]methoxy}phenyl)propanoic acid], the 50% inhibitory concentration (IC50) in test [1] (setting [2]) came to 9.08e-09 M; on Mcl-1 protein (setting [3]) it was 5.02e-09 M.

Take `COc1ccccc1-c1nccc(COc2ccccc2C[C@@H](Oc2ncnc3c2c(-c2ccc(OCCN4CCN(C)CC4)c(Cl)c2C)c(-c2ccc(F)cc2)n3C)C(=O)O)n1` [Example 72, (2R)-2-[5-[3-chloro-2-methyl-4-[2-(4-methylpiperazin-1-yl)ethoxy]phenyl]-6-(4-fluorophenyl)-7-methyl-pyrrolo[2,3-d]pyrimidin-4-yl]oxy-3-[2-[[2-(2-methoxyphenyl)pyrimidin-4-yl]methoxy]phenyl]propanoic acid]: the IC50 in test [1] (setting [2]) was determined as 3.2e-08 M; on Mcl-1 protein (setting [3]), 1.55e-08 M. For the same compound, the PARP fold in the test on cleaved form of PARP was found to be 15.7 fold.

With `COc1ccccc1-c1nccc(COc2ccccc2CC(Oc2ccnc3sc(-c4ccc(F)cc4)c(-c4ccc(OCCN5CCN(C)CC5)c(Cl)c4C)c23)C(=O)OC(C)OC(=O)N(C)C)n1` [Example 75, 1-[(dimethylcarbamoyl)oxy]ethyl (2R)-2-{[(3Sa)-3-{3-chloro-2-methyl-4-[2-(4-methylpiperazin-1-yl)ethoxy]phenyl}-2-(4-fluorophenyl)thieno[2,3-b]pyridin-4-yl]oxy}-3-(2-{[2-(2-methoxyphenyl)pyrimidin-4-yl]methoxy}phenyl)propanoate], the IC50 in test [1] (setting [2]) came out at 7.55e-08 M; on Mcl-1 protein (setting [3]), 5.61e-07 M.

For the compound `CCOC(=O)OC(C)OC(=O)C(Cc1ccccc1OCc1ccnc(-c2ccccc2OC)n1)Oc1ccnc2sc(-c3ccc(F)cc3)c(-c3ccc(OCCN4CCN(C)CC4)c(Cl)c3C)c12` [Example 76, 1-[(ethoxycarbonyl)oxy]ethyl (2R)-2-{[(3Sa)-3-{3-chloro-2-methyl-4-[2-(4-methylpiperazin-1-yl)ethoxy]phenyl}-2-(4-fluorophenyl)thieno[2,3-b]pyridin-4-yl]oxy}-3-(2-{[2-(2-methoxyphenyl)pyrimidin-4-yl]methoxy}phenyl)propanoate], the results for the IC50 (in test [1] (setting [2]); at Mcl-1 protein (setting [3])) were 1.01e-08 M and 1.34e-07 M, respectively.

On to `COc1ccccc1-c1nccc(COc2ccccc2C[C@@H](Nc2ccnc3sc(-c4ccc(F)cc4)c(-c4ccc(OCCN5CCN(C)CC5)c(Cl)c4C)c23)C(=O)O)n1` [Example 84, N-[3-{3-chloro-2-methyl-4-[2-(4-methylpiperazin-1-yl)ethoxy]phenyl}-2-(4-fluorophenyl)thieno[2,3-b]pyridin-4-yl]-2-{[2-(2-methoxyphenyl)pyrimidin-4-yl]methoxy}-D-phenylalanine], for which the concentration for half-maximal inhibition (IC50) in test [1] (setting [2]) amounted to 1.09e-08 M; at Mcl-1 protein (setting [3]), 5.45e-09 M.

Consider `COc1ccccc1-c1nccc(COc2ccccc2C[C@@H](Nc2nccc3sc(-c4ccc(F)cc4)c(-c4ccc(OCCN5CCN(C)CC5)c(Cl)c4C)c23)C(=O)O)n1` [Example 86, N-[3-{3-chloro-2-methyl-4-[2-(4-methylpiperazin-1-yl)ethoxy]phenyl}-2-(4-fluorophenyl)thieno[3,2-c]pyridin-4-yl]-2-{[2-(2-methoxyphenyl)pyrimidin-4-yl]methoxy}phenylalanine], for which the IC50 amounted to 3.59e-08 M in test [1] (setting [2]) and 3.05e-08 M at Mcl-1 protein (setting [3]).

With `COc1ccccc1-c1nccc(COc2ccccc2CC(Oc2nccc3nc(-c4ccc(F)cc4)c(-c4ccc(OCCN5CCN(C)CC5)c(Cl)c4C)n23)C(=O)O)n1` (stereo not shown) [Example 97a, 2-{[(3Sa)-3-{3-chloro-2-methyl-4-[2-(4-methylpiperazin-1-yl)ethoxy]phenyl}-2-(4-fluorophenyl)imidazo[1,2-c]pyrimidin-5-yl]oxy}-3-(2-{[2-(2-methoxyphenyl)pyrimidin-4-yl]methoxy}phenyl)propanoic acid], the 50% inhibitory concentration (IC50) in test [1] (exposed for 48 hours) worked out at 1.16e-05 M. Moreover, the “percentage fluorescence polarization inhibition” value on Mcl-1 protein (@ 10 μM test compound, partial inhibitors) is 55% @ 10 μM.

`COc1ccccc1-c1nccc(COc2ccccc2CC(Oc2nccc3nc(-c4ccc(F)cc4)c(-c4ccc(OCCN5CCN(C)CC5)c(Cl)c4C)n23)C(=O)O)n1` (stereo not shown) [Example 97b, 2-{[(3Ra)-3-{3-chloro-2-methyl-4-[2-(4-methylpiperazin-1-yl)ethoxy]phenyl}-2-(4-fluorophenyl)imidazo[1,2-c]pyrimidin-5-yl]oxy}-3-(2-{[2-(2-methoxyphenyl)pyrimidin-4-yl]methoxy}phenyl)propanoic acid]: the IC50 worked out at 4.59e-07 M in test [1] (setting [2]) and 4.1e-08 M at Mcl-1 protein (setting [3]).

`COc1ccccc1-c1nccc(COc2ccccc2C[C@@H](Nc2ccnc3nc(-c4ccc(F)cc4)c(-c4ccc(OCCN5CCN(C)CC5)c(Cl)c4C)n23)C(=O)O)n1` [Example 102, N-[3-{3-chloro-2-methyl-4-[2-(4-methylpiperazin-1-yl)ethoxy]phenyl}-2-(4-fluorophenyl)imidazo[1,2-a]pyrimidin-5-yl]-2-{[2-(2-methoxyphenyl)pyrimidin-4-yl]methoxy}-D-phenylalanine]: the IC50 in test [1] (setting [2]) was above 3e-05 M. The “IC50 (M) Mcl-1 FP” value at Mcl-1 protein (setting [3]) is listed as “no curve”.

The values are drawn from patent US10323041B2, “Bicyclic derivatives, a process for their preparation and pharmaceutical compositions containing them” (LES LABORATOIRES SERVIER, priority 2015, dated 2019).
